According to US10479780B2, “Aminopyrazole derivatives” (Chugai Seiyaku Kabushiki Kaisha, priority 2015, dated 2019):
pIC50: −log10 of the molar value.

How the values were obtained:
Format in all cases: biochemical
[1] = target: T1, human Src enzyme (Homo sapiens, UniProt P12931); assay: Src enzyme inhibitory activity (time-resolved fluorometry, biotinylated peptide phosphorylation); details: read-out: SRC_IC50
T1 construct: purchased Carna Biosciences, Inc. 08-173
How it was run: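 Compounds were tested for blocking tyrosine phosphorylation of a biotinylated peptide substrate by recombinant human Src. Phosphorylated product was quantified by time-resolved fluorometry using europium cryptate and XL665 conjugates, and IC50 was calculated against the compound-free control.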

[2] = target: T2, human Lck enzyme (Homo sapiens, UniProt P06239); assay: Lck enzyme inhibitory activity (time-resolved fluorometry, biotinylated peptide phosphorylation); details: read-out: LCK_IC50
T2 construct: purchased Carna Biosciences, Inc. 08-170
T2 sequence (P06239 whole entry): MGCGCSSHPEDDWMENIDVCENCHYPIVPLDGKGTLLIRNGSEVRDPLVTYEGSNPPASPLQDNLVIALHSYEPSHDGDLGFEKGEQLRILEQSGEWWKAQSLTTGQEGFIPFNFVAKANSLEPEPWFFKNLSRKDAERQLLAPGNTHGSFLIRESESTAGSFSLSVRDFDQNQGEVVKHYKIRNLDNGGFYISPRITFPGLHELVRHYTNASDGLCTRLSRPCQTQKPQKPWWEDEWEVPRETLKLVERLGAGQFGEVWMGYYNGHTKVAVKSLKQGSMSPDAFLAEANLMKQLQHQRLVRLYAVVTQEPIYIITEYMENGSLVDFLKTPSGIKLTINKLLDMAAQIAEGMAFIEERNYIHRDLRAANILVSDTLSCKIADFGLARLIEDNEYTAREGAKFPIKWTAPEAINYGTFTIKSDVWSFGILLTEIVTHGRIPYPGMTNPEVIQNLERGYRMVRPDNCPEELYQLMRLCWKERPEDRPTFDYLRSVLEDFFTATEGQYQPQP
How it was run: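 Readout pairs a europium cryptate-labelled anti-phosphotyrosine antibody with XL665-streptavidin, measured by time-resolved fluorescence. IC50 derived from percent inhibition against untreated controls.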

[3] = target: T3, human Yes1 enzyme (Homo sapiens, UniProt P07947); assay: Yes1 enzyme inhibitory activity (time-resolved fluorometry, biotinylated peptide phosphorylation); details: read-out: YES_IC50
T3 construct: made in house
T3 sequence (P07947 whole entry): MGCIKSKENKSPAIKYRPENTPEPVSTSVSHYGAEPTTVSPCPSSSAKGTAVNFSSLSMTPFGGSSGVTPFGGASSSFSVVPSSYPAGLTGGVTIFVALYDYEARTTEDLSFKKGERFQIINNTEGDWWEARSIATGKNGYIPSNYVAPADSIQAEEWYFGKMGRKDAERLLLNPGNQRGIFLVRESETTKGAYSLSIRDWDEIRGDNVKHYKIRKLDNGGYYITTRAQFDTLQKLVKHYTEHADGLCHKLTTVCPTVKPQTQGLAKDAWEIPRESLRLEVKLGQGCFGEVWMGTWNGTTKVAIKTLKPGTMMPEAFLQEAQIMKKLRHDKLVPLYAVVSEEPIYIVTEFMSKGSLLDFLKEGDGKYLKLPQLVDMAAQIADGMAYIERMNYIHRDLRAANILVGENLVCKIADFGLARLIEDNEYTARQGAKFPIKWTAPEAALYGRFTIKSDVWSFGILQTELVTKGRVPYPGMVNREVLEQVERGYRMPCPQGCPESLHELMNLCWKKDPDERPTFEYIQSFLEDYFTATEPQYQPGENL
How it was run: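 Inhibition was expressed against a compound-free control to give IC50, using TR-FRET read-out (Eu-cryptate anti-pTyr antibody, streptavidin-XL665).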

T1 sequence (P12931 whole entry): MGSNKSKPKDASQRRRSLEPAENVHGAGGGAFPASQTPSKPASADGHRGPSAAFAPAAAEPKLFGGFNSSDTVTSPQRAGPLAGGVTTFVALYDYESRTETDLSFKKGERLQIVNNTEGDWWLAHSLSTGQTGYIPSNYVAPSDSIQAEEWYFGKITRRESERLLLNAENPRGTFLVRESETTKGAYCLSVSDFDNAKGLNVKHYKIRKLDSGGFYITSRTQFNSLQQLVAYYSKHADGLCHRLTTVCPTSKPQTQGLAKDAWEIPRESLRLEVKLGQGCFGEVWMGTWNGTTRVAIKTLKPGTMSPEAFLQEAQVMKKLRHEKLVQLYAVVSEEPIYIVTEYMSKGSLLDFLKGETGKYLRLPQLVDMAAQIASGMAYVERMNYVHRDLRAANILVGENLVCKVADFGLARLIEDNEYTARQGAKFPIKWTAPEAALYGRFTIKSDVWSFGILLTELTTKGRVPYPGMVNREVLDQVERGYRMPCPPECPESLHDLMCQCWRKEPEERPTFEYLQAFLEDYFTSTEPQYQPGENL

| Compound | pIC50 [1] | pIC50 [2] | pIC50 [3] |
| --- | --- | --- | --- |
| Cc1cc(Oc2ccccc2F)ccc1-n1ncc(C(=O)c2cc3cc(O)c(NS(C)(=O)=O)cc3[nH]2)c1N [Example 5-1-061, N-[2-[5-amino-1-[4-(2-fluorophenoxy)-2-methylphenyl]pyrazole-4-carbonyl]-5-hydroxy-1H-indol-6-yl]methanesulfonamide] | 7.92 | 8.15 | 9.02 |
| Cc1cc2cc(C(=O)c3cnn(-c4ccc(Oc5ncccc5Cl)cc4Cl)c3N)[nH]c2cc1N1CCCS1(=O)=O [Example 5-1-062, [5-amino-1-[2-chloro-4-(3-chloropyridin-2-yl)oxyphenyl]pyrazol-4-yl]-[6-(1,1-dioxo-1,2-thiazolidin-2-yl)-5-methyl-1H-indol-2-yl] methanone] | 7.32 | 7.89 | 8.62 |
| Cc1cc2cc(C(=O)c3cnn(-c4cnc(Oc5ccc(F)cc5)cc4C)c3N)[nH]c2cc1NS(=O)(=O)N1CCOCC1 [Example 5-1-064, N-[2-[5-amino-1-[6-(4-fluorophenoxy)-4-methylpyridin-3-yl]pyrazole-4-carbonyl]-5-methyl-1H-indol-6-yl]morpholine-4-sulfonamide] | 6.47 | 6.59 | 7.62 |
| Cc1cc2cc(C(=O)c3cnn(-c4c(C)cc(Oc5cccc(F)c5F)cc4F)c3N)[nH]c2cc1NS(=O)(=O)N1CCOCC1 [Example 5-1-066, N-[2-[5-amino-1-[4-(2,3-difluorophenoxy)-2-fluoro-6-methylphenyl]pyrazole-4-carbonyl]-5-methyl-1H-indol-6-yl]morpholine-4-sulfonamide] | 6.68 | 7.11 | 8.57 |
| Cc1cc(Oc2c(F)cccc2F)ncc1-n1ncc(C(=O)c2cc3cc(F)c(N(C(C)C)S(C)(=O)=O)cc3[nH]2)c1N [Example 5-1-067, N-[2-[5-amino-1-[6-(2,6-difluorophenoxy)-4-methylpyridin-3-yl]pyrazole-4-carbonyl]-5-fluoro-1H-indol-6-yl]-N-propan-2-ylmethanesulfonamide] | 7.21 | 8.25 | 8.64 |
| Cc1cc(Oc2c(F)cccc2F)ncc1-n1ncc(C(=O)c2cc3cc(OCC(F)F)c(C4CCN(C(=O)OC(C)(C)C)CC4)cc3[nH]2)c1N [Example 5-1-069, tert-Butyl 4-[2-[5-amino-1-[6-(2,6-difluorophenoxy)-4-methylpyridin-3-yl]pyrazole-4-carbonyl]-5-(2,2-difluoroethoxy)-1H-indol-6-yl]piperidine-1-carboxylate] | 7.48 | 7.70 | 7.74 |
| CCOc1cc2cc(C(=O)c3cnn(-c4ccc(Oc5ccccc5F)cc4C)c3N)[nH]c2cc1C1CCN(S(=O)(=O)C2CC2)CC1 [Example 5-1-071, [5-amino-1-[4-(2-fluorophenoxy)-2-methylphenyl]pyrazol-4-yl]-[6-(1-cyclopropylsulfonylpiperidin-4-yl)-5-ethoxy-1H-indol-2-yl]methanone] | 7.17 | 7.21 | 7.55 |
| Cc1cc(Oc2c(F)cccc2F)ncc1-n1ncc(C(=O)c2cc3cc(OC(F)F)c(N4CCN(S(C)(=O)=O)CC4)cc3[nH]2)c1N [Example 5-1-075, [5-amino-1-[6-(2,6-difluorophenoxy)-4-methylpyridin-3-yl]pyrazol-4-yl]-[5-(difluoromethoxy)-6-(4-methylsulfonylpiperazin-1-yl)-1H-indol-2-yl]methanone] | 7.14 | 7.74 | 8.55 |
| Cc1cc2cc(C(=O)c3cnn(-c4ccc(Oc5ccccc5F)cc4C)c3N)[nH]c2cc1N1CCC(N2CCOCC2)CC1 [Example 5-1-077, [5-amino-1-[4-(2-fluorophenoxy)-2-methylphenyl]pyrazol-4-yl]-[5-methyl-6-(4-morpholin-4-ylpiperidin-1-yl)-1H-indol-2-yl] methanone] | 7.38 | 8.15 | 9.00 |
| Cc1cc2cc(C(=O)c3cnn(-c4cnc(Oc5ccccc5F)cc4C)c3N)[nH]c2cc1N1CCC(N2CCOCC2)CC1 [Example 5-1-078, [5-amino-1-[6-(2-fluorophenoxy)-4-methylpyridin-3-yl]pyrazol-4-yl]-[5-methyl-6-(4-morpholin-4-ylpiperidin-1-yl)-1H-indol-2-yl]methanone] | 8.00 | 8.62 | 9.55 |
| Cc1cc(Oc2c(F)cccc2F)ncc1-n1ncc(C(=O)c2cc3cc(OC(F)F)c(NC4CN(S(C)(=O)=O)C4)cc3[nH]2)c1N [Example 5-1-079, [5-amino-1-[6-(2,6-difluorophenoxy)-4-methylpyridin-3-yl]pyrazol-4-yl]-[5-(difluoromethoxy)-6-[(1-methylsulfonylazetidin-3-yl)amino]-1H-indol-2-yl]methanone] | 7.70 | 8.42 | 9.00 |
| Cc1cc2cc(C(=O)c3cnn(-c4cnc(Oc5cc(F)ccc5F)cc4C)c3N)[nH]c2cc1NS(C)(=O)=O [Example 5-1-081, N-[2-[5-amino-1-[6-(2,5-difluorophenoxy)-4-methylpyridin-3-yl]pyrazole-4-carbonyl]-5-methyl-1H-indol-6-yl]methanesulfonamide] | 6.96 | 8.19 | 8.62 |

Further compounds by rising pIC50 [1], results first:

| pIC50 [1] | pIC50 [2] | pIC50 [3] | Compound |
| --- | --- | --- | --- |
| 6.46 | 6.92 | 8.11 | Cc1cc2cc(C(=O)c3cnn(-c4ccc(Oc5ncccc5Cl)cc4Cl)c3N)[nH]c2cc1NS(=O)(=O)N1CCOCC1 [Example 5-1-065, N-[2-[5-amino-1-[2-chloro-4-(3-chloropyridin-2-yl)oxyphenyl]pyrazole-4-carbonyl]-5-methyl-1H-indol-6-yl]morpholine-4-sulfonamide] |
| 6.92 | 7.80 | 8.55 | Cc1cc(Oc2ccccc2F)cc(F)c1-n1ncc(C(=O)c2cc3cc(OC(F)F)c(NS(C)(=O)=O)cc3[nH]2)c1N [Example 5-1-076, N-[2-[5-amino-1-[2-fluoro-4-(2-fluorophenoxy)-6-methylphenyl]pyrazole-4-carbonyl]-5-(difluoromethoxy)-1H-indol-6-yl] methanesulfonamine] |
| 7.08 | 7.54 | 8.55 | Cc1cc2cc(C(=O)c3cnn(-c4ccc(Oc5ncccc5Cl)cc4Cl)c3N)[nH]c2cc1NS(=O)(=O)CCCF [Example 5-1-063, N-[2-[5-amino-1-[2-chloro-4-(3-chloropyridin-2-yl)oxyphenyl]pyrazole-4-carbonyl]-5-methyl-1H-indol-6-yl]-3-fluoropropane-1-sulfonamide] |
| 7.38 | 7.49 | 8.01 | CCOc1cc2cc(C(=O)c3cnn(-c4ccc(Oc5ccccc5F)cc4C)c3N)[nH]c2cc1C1CCN(S(C)(=O)=O)CC1 [Example 5-1-073, [5-amino-1-[4-(2-fluorophenoxy)-2-methylphenyl]pyrazol-4-yl]-[5-ethoxy-6-(1-methylsulfonylpiperidin-4-yl)-1H-indol-2-yl] methanone] |
| 7.43 | 7.85 | 8.48 | Cc1cc(Oc2c(F)cccc2F)ncc1-n1ncc(C(=O)c2cc3cc(OCC(F)F)c(Br)cc3[nH]2)c1N [Example 5-1-080, [5-amino-1-[6-(2,6-difluorophenoxy)-4-methylpyridin-3-yl]pyrazol-4-yl]-[6-bromo-5-(2,2-difluoroethoxy)-1H-indol-2-yl]methanone] |
| 7.44 | 8.09 | 8.11 | Cc1cc(Oc2c(F)cccc2F)ncc1-n1ncc(C(=O)c2cc3cc(OC(F)F)c(-n4c(C)cc(=O)[nH]c4=O)cc3[nH]2)c1N [Example 5-1-072, 1-[2-[5-amino-1-[6-(2,6-difluorophenoxy)-4-methylpyridin-3-yl]pyrazole-4-carbonyl]-5-(difluoromethoxy)-1H-indol-6-yl]-6-methylpyrimidine-2,4-dione] |
| 7.59 | 7.96 | 8.72 | Cc1cc(Oc2ccccc2F)ccc1-n1ncc(C(=O)c2cc3cc(OC(F)F)c(Br)cc3[nH]2)c1N [Example 5-1-082, [5-amino-1-[4-(2-fluorophenoxy)-2-methylphenyl]pyrazol-4-yl]-[6-bromo-5-(difluoromethoxy)-1H-indol-2-yl]methanone] |
| 7.60 | 8.49 | 8.80 | Cc1cc(Oc2c(F)cccc2F)ncc1-n1ncc(C(=O)c2cc3cc(OC(F)F)c(N)cc3[nH]2)c1N [Example 5-1-074, [6-amino-5-(difluoromethoxy)-1H-indol-2-yl]-[5-amino-1-[6-(2,6-difluorophenoxy)-4-methylpyridin-3-yl]pyrazol-4-yl]methanone] |
| 7.82 | 8.08 | 8.25 | Cc1cc(Oc2ccccc2F)ccc1-n1ncc(C(=O)c2cc3cc(OCC(F)F)c(C4CCN(C(=O)OC(C)(C)C)CC4)cc3[nH]2)c1N [Example 5-1-068, tert-Butyl 4-[2-[5-amino-1-[4-(2-fluorophenoxy)-2-methylphenyl]pyrazole-4-carbonyl]-5-(2,2-difluoroethoxy)-1H-indol-6-yl] piperidine-1-carboxylate] |
| 7.89 | 7.92 | 9.07 | Cc1cc(Oc2ccccc2F)ccc1-n1ncc(C(=O)c2cc3cc(OCC(F)F)c(Br)cc3[nH]2)c1N [Example 5-1-070, [5-amino-1-[4-(2-fluorophenoxy)-2-methylphenyl]pyrazol-4-yl]-[6-bromo-5-(2,2-difluoroethoxy)-1H-indol-2-yl]methanone] |
| 8.14 | 8.15 | 9.14 | Cc1cc(Oc2ccccc2F)ccc1-n1ncc(C(=O)c2cc3cc(OC(F)F)c(N)cc3[nH]2)c1N [Example 5-1-083, [6-amino-5-(difluoromethoxy)-1H-indol-2-yl]-[5-amino-1-[4-(2-fluorophenoxy)-2-methylphenyl]pyrazol-4-yl]methanone] |
